According to patent publication US20070167450A1, “Agent for treating chronic pelvic pain syndrome” (Astellas Pharma Inc., priority 2003, published 2007):

Assays:
[1] = system: Rat Antigen-Induced Cystitis Model; assay: Rat antigen-induced cystitis model: peroxidase activity in bladder extract; type: in vivo, Brown Norway (BN) female rats; conditions: bladder removed after 24 hours, saline group 0%, control group 100%
Procedure: Efficacy of PDE 4 Inhibitors in Rat Antigen-Induced Cystitis Model
Antigen sensitization was carried out by intraperitoneally administering physiological saline containing ovalbumin (OA, 1 mg/ml)-aluminum hydroxide gel (Alum, 20 mg/ml) to Brown Norway (BN) female rats, at a dose of 1 ml per animal for 3 continuous days. After completion of the sensitization, a urethral catheter was attached to each animal under anesthesia, 3% OA/physiological saline was injected into the bladder to induce cystitis, and the resulting animals were used as the control group. Also, a group in which physiological saline was injected into the bladder of each sensitized rat was used as the physiological saline group. A group in which compound A (3 mg/kg), roflumilast (3 mg/kg) or cilomilast (30 mg/kg) was orally administered 1 hour before the intravesical antigen injection was used as a compound A administration group, a roflumilast administration group or a cilomilast administration group. After 24 hours of the intravesical antigen injection, the bladder was removed under pentobarbital anesthesia, and bladder extract was prepared in accordance with the method of Malley et al. (Physiological Genomics, (USA), 2002, vol. 9, no. 1, pp. 5-13). Peroxidase activity in the bladder extract was measured in accordance with the method of Bradley et al. (The Journal of Investigative Dermatology, (England), March 1982, vol. 78, no. 3, pp. 206-9) using human myeloperoxidase (manufactured by Sigma) as the standard, and the results were expressed by defining the peroxidase activity of the physiological saline group as 0%, and the peroxidase activity of the control group as 100%.
When antigen-induced cystitis was caused by carrying out antigen injection into the bladder of each of the sensitized BN rats, and peroxidase activity in the bladder tissue was measured as one of the indexes of cystitis, increase in the peroxidase activity in the bladder tissue was found in the control group. […]

[2] = system: Rat Hydrochloric Acid-Induced Cystitis Model; assay: Rat hydrochloric acid-induced cystitis model: intravesical pressure recording; type: in vivo, Brown Norway (BN) female rats; conditions: 1 mg/kg orally once a day for 10 days after 0.4 N HCl into the bladder; measured after 11 days under urethane anesthesia
Procedure: Efficacy of PDE 4 Inhibitors in Rat Hydrochloric Acid-Induced Cystitis Model
A bladder disorder was induced by attaching a urethral catheter to each of Brown Norway (BN) female rats under ether anesthesia and injecting 0.4 N hydrochloric acid into the bladder (0.15 ml per one rat). Starting on the next of the bladder disorder induction, the compound A (1 mg/kg) or a vehicle (0.5% methyl cellulose aqueous solution) was orally administered once a day for 10 days, and respectively used as a compound A administration group and a control group. Also, a group in which physiological saline was injected into the bladder (0.15 ml per one rat), and the vehicle was orally administered once a day for 10 days starting on the next day, was used as a physiological saline group. After 11 days of the bladder disorder induction, each rat was fixed in the supine position under urethane anesthesia and equipped with a urethral catheter, and via its three-way cock, one end was used as the injection passage and the other end was connected to a pressure transducer (DX-312, manufactured by NIHON KOHDEN). Physiological saline was continuously injected into the bladder (50 μl/min) using an infusion pump (model 22, Harvard), and the intravesical pressure at that time was amplified by a pre-amplifier (AP-621G, manufactured by NIHON KOHDEN) and recorded using a recorder. […] In comparison with this, in the case of the control group, increase in the resting time intravesical pressure was observed, but increase in the bladder contraction pressure at the time of micturition was hardly found, and micturition frequency was high. In the compound A administration group, increase of the resting time intravesical pressure was inhibited, and increase in the intravesical pressure accompanied by the micturition reflex was also observed.

[3] = 3 mg/kg orally 1 hour before intravesical antigen (OA) injection

SMILES | inhibition of the increase of peroxidase activity in the bladder tissue ([1]; 30 mg/kg orally 1 hour before intravesical antigen (OA) injection) [%] | increase in the intravesical pressure accompanied by the micturition reflex [2] | increase of the resting time intravesical pressure [2] | interval of the micturition reflex [2] | inhibition of the increase of peroxidase activity in the bladder tissue [1, 3] [%]
COc1ccc([C@]2(C#N)CC[C@@H](C(=O)O)CC2)cc1OC1CCCC1 [cilomilast] | 68 |  |  |  | 
CCn1c(=O)c(CCC(=O)O)c(-c2cccc(Cl)c2)c2ccc(C)nc21 [compound A, 3-[4-(3-chlorophenyl)-1-ethyl-7-methyl-2-oxo-1,2-dihydro-1,8-naphthyridin-3-yl]propanoic acid] |  | observed | inhibited | almost the same as that of the physiological saline administration group | 72
O=C(Nc1c(Cl)cncc1Cl)c1ccc(OC(F)F)c(OCC2CC2)c1 [roflumilast] |  |  |  |  | 79
